Results from patent US12516041B2, “Crystal forms of GLP-1R agonists and uses thereof” (QILU REGOR THERAPEUTICS INC., priority 2020, dated 2026).
In brackets after ≈: the same amount, converted by molar mass. Like-named read-outs stand apart in the source and are kept apart here.

Legend:
Type in all cases: physicochemical
[1] = Dynamic Vapor Sorption (DVS)
Text: Moisture sorption/desorption data was collected on a Vsorp Dynamic Moisture Sorption Analyzer (ProUmid GmbH & Co. KG, Germany). The sample was placed into a tared sample chamber and automatically weighed.
The product obtained from preparation method 1 was characterized by XRPD (FIG. 1), TGA, DSC (FIG. 2), DVS (FIG. 3), and ^1H-NMR.

[2] = Solid-state stability study (HPLC purity, XRPD)
Protocol: XRPD patterns were identified with an X-ray diffractometer (PANalytical Empyrean). The system was equipped with PIXcel^1D detector. Samples were scanned from 3 to 40° 2θ, at a step size of 0.013° 2θ. The tube voltage and current were 45 KV and 40 mA, respectively.
(§1) HPLC analysis was performed with an Agilent HPLC 1260 series instrument.
(§2) HPLC Method for Stability and Solubility Testing
About 25 mg of free acid Form I was placed at 60° C./capped and 40° C./75% RH (open) conditions for up to 12 days. At day 0 and 7, the sample was dissolved in diluent to prepare 0.5 mg/mL solution for HPLC purity analysis. Solid samples were analyzed by XRPD to check the crystal form at day 12.

[3] = Solubility test in bio-relevant media (SGF, FeSSIF, FaSSIF), HPLC of filtrate, XRPD of filter cake; settings: for solubility at 24 h / solubility at 0.5 h / solubility at 2 h: 37 °C, thermodynamic from solid; for solubility at 24 h: read-out: Solubility (μg/mL) 24 h; for solubility at 0.5 h: read-out: Solubility (μg/mL) 0.5 h; for solubility at 2 h: read-out: Solubility (μg/mL) 2 h
Protocol: as §1, §2
The solubility of free acid Form I was tested in bio-relevant media (Simulated Gastric Fluid (SGF), Fasted-State Simulated Intestinal Fluid (FaSSIF) and Fed-State Simulated Intestinal Fluid (FeSSIF)) at 37° C. for up to 24 hours. About 15 mg of the sample was weighed into sample vial, and then 5.0 mL of bio-relevant media was added to make suspension. All suspensions prepared were shaken @ 600 rpm with a QQMSC-100 shaker at 37° C. At 0.5, 2 and 24 hours, about 1000 μL of each suspension was filtered and diluted, and then the filtrate was analyzed by HPLC to test the solubility. The pH of the filtrate was measured, and the filter cake was analyzed by XRPD.

Hygroscopicity (DVS) [1]: Slightly
DVS weight change to 90% RH ([1]; 0 to 90% RH): 0.6%
Crystal form after DVS test ([1]; after DVS test): remained unchanged
DVS weight change 0-80% RH ([1]; from 0 to 80% RH): ~0.3%
Hygroscopicity (DVS) ([1]; listed as crystalline Form I of Compound A free acid): slightly hygroscopic
Hygroscopicity (DVS) ([1]; listed as free acid Form I): slightly hygroscopic
Purity-1 week (Area %) 40° C./75% RH, 1 week ([2]; 40° C./75% RH (open), 1 week, HPLC): 99.56 Area %
XRPD-12 days 40° C./75% RH ([2]; 40° C./75% RH (open), 12 days): Unchanged
Physical and chemical stability (in words) ([2]; 60° C./capped and 40° C./75% RH (open), 12 days): physically and chemically stable
Purity-1 week (Area %) 60° C./Capped, 1 week ([2]; 60° C./capped, 1 week, HPLC): 99.54 Area %
XRPD-12 days 60° C./Capped ([2]; 60° C./capped, 12 days): Unchanged
Initial Purity (Area %) ([2]; day 0, HPLC): 99.58 Area %
solubility at 24 h ([3]; FaSSIF, pH 6.45, fassif, FaSSIF, pH 6.45 (24 h)): 15 µg/mL (≈ 26 µM)
solubility at 0.5 h ([3]; FaSSIF, pH 6.5, fassif, FaSSIF, pH 6.50 (0 h)): ~5 µg/mL (≈ 8.68 µM)
solubility at 2 h ([3]; FaSSIF, pH 6.5, fassif, FaSSIF): 6 µg/mL (≈ 10.4 µM)
solubility at 24 h ([3]; FeSSIF, pH 4.95, fessif, FeSSIF, pH 4.95 (24 h)): 11 µg/mL (≈ 19.1 µM)
solubility at 0.5 h ([3]; FeSSIF, pH 4.99, fessif, FeSSIF, pH 4.99 (0 h)): ~10 µg/mL (≈ 17.4 µM)
solubility at 2 h ([3]; FeSSIF, pH 4.99, fessif, FeSSIF): 17 µg/mL (≈ 29.5 µM)
Solubility in SGF (in words) ([3]; SGF, 37° C.): insoluble
XRPD pattern after solubility study ([3]; bio-relevant media, 37° C., up to 24 hours): not changed
XRPD (24 h) ([3]; filter cake after 24 h in FaSSIF, 37° C.): Unchanged
XRPD (24 h) ([3]; filter cake after 24 h in FeSSIF, 37° C.): Unchanged
XRPD (24 h) ([3]; filter cake after 24 h in SGF, 37° C.): Unchanged
Structure (SMILES): O=C(O)c1ccc2nc(Cc3ccc(-c4cccc(OCc5ccc(Cl)cc5F)n4)cc3F)n(C[C@@H]3CCO3)c2c1 [Free Acid Form I, (S)-2-(4-(6-((4-chloro-2-fluorobenzyl)oxy)pyridin-2-yl)-2-fluorobenzyl)-1-(oxetan-2-ylmethyl)-1H-benzo[d]imidazole-6-carboxylic acid]
